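Grown in 96-well plates, cells were treated for 48 hours with each compound at five concentrations. Insufficient inhibition: endpoint recorded as highest concentration tested. Definition used: TGI = concentration required for complete inhibition of growth.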
Tests used:
Experiment in all cases: inhibition of tumour cell growth, NCI panel, 48 h
786-0 renal = test system: 786-0 renal
A549 NSCLC = test system: A549 NSCLC
ACHN renal = test system: ACHN renal
CAKI-1 renal = test system: CAKI-1 renal
CCRF-CEM leukemia = test system: CCRF-CEM leukemia
COLO 205 colon = test system: COLO 205 colon
DLD-1 colon = test system: DLD-1 colon
DMS 114 small cell lung = test system: DMS 114 small cell lung
DMS 273 small cell lung = test system: DMS 273 small cell lung
EKVX NSCLC = test system: EKVX NSCLC
HCC-2998 colon = test system: HCC-2998 colon
HCT-116 colon = test system: HCT-116 colon
HCT-15 colon = test system: HCT-15 colon
HL-60(TB) leukemia = test system: HL-60(TB) leukemia
HOP-18 NSCLC = test system: HOP-18 NSCLC
HT29 colon = test system: HT29 colon
K-562 leukemia = test system: K-562 leukemia
KM12 colon = test system: KM12 colon
LOX IMVI melanoma = test system: LOX IMVI melanoma
M14 melanoma = test system: M14 melanoma
M19-MEL melanoma = test system: M19-MEL melanoma
MALME-3M melanoma = test system: MALME-3M melanoma
MOLT-4 leukemia = test system: MOLT-4 leukemia
NCI-H226 lung = test system: NCI-H226 lung
NCI-H23 lung = test system: NCI-H23 lung
NCI-H460 lung = test system: NCI-H460 lung
NCI-H522 lung = test system: NCI-H522 lung
OVCAR-3 ovarian = test system: OVCAR-3 ovarian
OVCAR-4 ovarian = test system: OVCAR-4 ovarian
OVCAR-5 ovarian = test system: OVCAR-5 ovarian
OVCAR-8 ovarian = test system: OVCAR-8 ovarian
RPMI-8226 leukemia = test system: RPMI-8226 leukemia
SF-268 CNS = test system: SF-268 CNS
SF-295 CNS = test system: SF-295 CNS
SF-539 CNS = test system: SF-539 CNS
SK-MEL-2 melanoma = test system: SK-MEL-2 melanoma
SK-MEL-28 melanoma = test system: SK-MEL-28 melanoma
SK-MEL-5 melanoma = test system: SK-MEL-5 melanoma
SN12C renal = test system: SN12C renal
SNB-19 CNS = test system: SNB-19 CNS
SNB-75 CNS = test system: SNB-75 CNS
SNB-78 CNS = test system: SNB-78 CNS
SR leukemia = test system: SR leukemia
SW-620 colon = test system: SW-620 colon
TK-10 renal = test system: TK-10 renal
UACC-257 melanoma = test system: UACC-257 melanoma
UO-31 renal = test system: UO-31 renal
XF 498 CNS = test system: XF 498 CNS
A498 renal = test system: A498 renal
HOP-62 NSCLC = test system: HOP-62 NSCLC
HOP-92 NSCLC = test system: HOP-92 NSCLC
IGROV1 ovarian = test system: IGROV1 ovarian
KM20L2 colon = test system: KM20L2 colon
LXFL 529 NSCLC = test system: LXFL 529 NSCLC
SK-OV-3 ovarian = test system: SK-OV-3 ovarian
U251 CNS = test system: U251 CNS
UACC-62 melanoma = test system: UACC-62 melanoma

Measured: TGI

COc1ccc(CNc2cnc3ccc(N)cc3n2)cc1OC
not listed: A498 renal | HOP-62 NSCLC | HOP-92 NSCLC | IGROV1 ovarian | KM20L2 colon | LXFL 529 NSCLC | SK-OV-3 ovarian | U251 CNS | UACC-62 melanoma
> 100 µM: all other assays above

CN(C)N=Nc1cn[nH]c1C(N)=O
93.3 µM: UACC-62 melanoma
not listed: SNB-78 CNS | UO-31 renal
> 100 µM: all other assays above

CC(=O)Nc1ccc(C(=O)NN2C(=O)C(Cl)C2c2cc(Br)cc(Br)c2O)cc1 (stereo not given)
not listed: HT29 colon | SF-295 CNS | SK-MEL-28 melanoma | SNB-78 CNS | TK-10 renal
> 100 µM: all other assays above
